Test [1] concerns the target T1, BChE (Homo sapiens, UniProt P06276). Nature of the test: BChE inhibition, modified Ellman method. The class given is biochemical. Particulars: for inhibition at 50 µM: read-out: BChE % inhibition at 50 µM. The method, then: (§1) Cholinesterase inhibitory activities of all analogs were evaluated spectrometrically using the modified Ellman method as previously reported[40],[41]. […] The absorbance of each well was measured at 415 nm using a microplate reader. IC50 values and inhibition values were calculated with the software GraphPad Prism as the mean of three independent experiments and are expressed as mean ± SEM.
A general note: Ellman's reagent forms a yellow product with free thiols.

The target of test [2] is T2, AChE (Homo sapiens, UniProt P22303). Nature of the test: biochemical. To be noted: for inhibition at 50 µM: read-out: AChE % inhibition at 50 µM. Here is the method: as §1
Test [3] has as its target T2, AChE. Particulars: cited from earlier work.
In test [4] the target is T1, BChE. Particulars: cited from earlier work.
The mark [5] stands for this setting: 50 µM, mean ± S.E of three to five independent experiments.
[6] abbreviates: mean ± S.E of three to five independent experiments, read-out: BChE IC50.
The mark [7] stands for this setting: mean ± S.E of three to five independent experiments, read-out: AChE IC50.

As usually defined, the inhibition is the share of the control response that was lost under treatment. A word on the IC50: it is the concentration needed to halve the response being measured.

SMILES strings stand for the structures. Like-named read-outs stand apart in the source and are kept apart here.

T2 sequence (P22303 32-614): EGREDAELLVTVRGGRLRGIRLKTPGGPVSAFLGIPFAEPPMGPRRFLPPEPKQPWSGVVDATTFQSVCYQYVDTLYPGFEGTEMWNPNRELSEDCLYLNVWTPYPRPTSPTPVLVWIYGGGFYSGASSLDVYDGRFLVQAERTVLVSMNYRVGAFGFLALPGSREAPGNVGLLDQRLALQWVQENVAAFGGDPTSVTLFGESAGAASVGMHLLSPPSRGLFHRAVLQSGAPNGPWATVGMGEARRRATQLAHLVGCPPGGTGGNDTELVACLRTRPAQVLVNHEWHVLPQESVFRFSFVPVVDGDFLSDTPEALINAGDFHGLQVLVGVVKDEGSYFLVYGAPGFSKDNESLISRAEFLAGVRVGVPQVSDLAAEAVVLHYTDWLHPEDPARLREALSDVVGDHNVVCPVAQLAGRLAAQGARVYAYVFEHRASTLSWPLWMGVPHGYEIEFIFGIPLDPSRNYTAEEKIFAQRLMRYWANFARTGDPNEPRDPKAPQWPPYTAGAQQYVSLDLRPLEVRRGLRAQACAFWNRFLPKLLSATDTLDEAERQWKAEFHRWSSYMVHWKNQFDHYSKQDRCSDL
T1 sequence (P06276 29-602): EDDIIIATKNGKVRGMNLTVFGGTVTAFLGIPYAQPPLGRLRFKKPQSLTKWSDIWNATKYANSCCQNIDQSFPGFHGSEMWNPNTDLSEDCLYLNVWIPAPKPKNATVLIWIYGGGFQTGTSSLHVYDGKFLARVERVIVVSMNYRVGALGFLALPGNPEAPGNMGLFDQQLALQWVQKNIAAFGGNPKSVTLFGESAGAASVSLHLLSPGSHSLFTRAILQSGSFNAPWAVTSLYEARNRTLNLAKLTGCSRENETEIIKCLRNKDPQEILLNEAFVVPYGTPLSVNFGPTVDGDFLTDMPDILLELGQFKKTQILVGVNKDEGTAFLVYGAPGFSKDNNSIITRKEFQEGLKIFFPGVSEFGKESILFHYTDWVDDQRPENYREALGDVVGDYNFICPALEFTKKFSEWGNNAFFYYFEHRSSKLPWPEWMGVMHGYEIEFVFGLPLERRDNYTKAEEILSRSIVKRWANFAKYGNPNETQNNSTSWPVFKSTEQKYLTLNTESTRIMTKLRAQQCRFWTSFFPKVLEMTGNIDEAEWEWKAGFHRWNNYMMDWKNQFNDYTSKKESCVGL

On to `Cc1ccc(NC2=C([N+](=O)[O-])C3(C(=O)Nc4ccc(Cl)cc43)C(C#N)=C(N)NN2)cc1` (stereo not shown) [Compound 5a, 3-amino-5'-chloro-6-nitro-2'-oxo-7-(p-tolylamino)-1,2-dihydrospiro[[1,2]diazepine-5,3'-indoline]-4-carbonitrile], for which the inhibition at 50 µM turned out to be 18.1 ± 2.88% in test [1] (setting [5]) and 5.37 ± 3.11% in test [2] (setting [5]).

In the case of `COc1ccc(NC2=C([N+](=O)[O-])C3(C(=O)Nc4ccc(Cl)cc43)C(C#N)=C(N)NN2)cc1` (stereo not shown) [Compound 5b, 3-amino-5'-chloro-7-((4-methoxyphenyl)amino)-6-nitro-2'-oxo-1,2-dihydrospiro[[1,2]diazepine-5,3'-indoline]-4-carbonitrile], the figures for the inhibition at 50 µM in test [1] (setting [5]) and in test [2] (setting [5]) were 36.8 ± 2.1% and 42.8 ± 2.15%, respectively.

In the case of `Cc1ccc(NC2=C([N+](=O)[O-])C3(C(=O)Nc4ccc(Cl)cc43)C(C#N)=C(N)NN2)cc1C` (stereo not shown) [Compound 5c, 3-amino-5'-chloro-7-((3,4-dimethylphenyl)amino)-6-nitro-2'-oxo-1,2-dihydrospiro[[1,2]diazepine-5,3'-indoline]-4-carbonitrile], the inhibition at 50 µM in test [1] (setting [5]) was determined as 37 ± 3.78%. For the same molecule, the “AChE % inhibition at 50 µM” value in test [2] (setting [5]) is on record as “Not active”.

`COc1ccc(OC)c(NC2=C([N+](=O)[O-])C3(C(=O)Nc4ccc(Cl)cc43)C(C#N)=C(N)NN2)c1` (stereo not shown) [Compound 5d, 3-amino-5'-chloro-7-((2,5-dimethoxyphenyl)amino)-6-nitro-2'-oxo-1,2-dihydrospiro[[1,2]diazepine-5,3'-indoline]-4-carbonitrile]: the values for the inhibition at 50 µM in test [1] (setting [5]) and in test [2] (setting [5]) were 19.2 ± 4.07% and 27.8 ± 5.26%, respectively.

In the case of `N#CC1=C(N)NNC(Nc2ccc(Cl)cc2)=C([N+](=O)[O-])C12C(=O)Nc1ccc(Cl)cc12` (stereo not shown) [Compound 5e, 3-amino-5'-chloro-7-((4-chlorophenyl)amino)-6-nitro-2'-oxo-1,2-dihydrospiro[[1,2]diazepine-5,3'-indoline]-4-carbonitrile], the “BChE % inhibition at 50 µM” value in test [1] (setting [5]) is “Not active”. In addition, the inhibition at 50 µM in test [2] (setting [5]) amounted to 13.4 ± 3.34%.

Take `Cc1ccccc1NC1=C([N+](=O)[O-])C2(C(=O)Nc3ccc([N+](=O)[O-])cc32)C(C#N)=C(N)NN1` (stereo not shown) [Compound 5f, 3-amino-5',6-dinitro-2'-oxo-7-(o-tolylamino)-1,2-dihydrospiro[[1,2]diazepine-5,3'-indoline]-4-carbonitrile]: the inhibition at 50 µM was found to be 23.3 ± 3.97% in test [1] and 59.6 ± 6.75% in test [2]. In addition, in test [2], the IC50 amounted to 22.4 ± 2.11 µM.

As to `Cc1ccc(NC2=C([N+](=O)[O-])C3(C(=O)Nc4ccc([N+](=O)[O-])cc43)C(C#N)=C(N)NN2)cc1` (stereo not shown) [Compound 5g, 3-amino-5',6-dinitro-2'-oxo-7-(p-tolylamino)-1,2-dihydrospiro[[1,2]diazepine-5,3'-indoline]-4-carbonitrile], in test [1], the inhibition at 50 µM was 24.4 ± 2.96%. For the same molecule, in test [2], the midpoint of inhibition, the IC50, lay at 5.88 ± 0.84 µM and the inhibition at 50 µM was 66.3 ± 6.57%.

As for `Cc1ccc(NC2=C([N+](=O)[O-])C3(C(=O)Nc4ccc([N+](=O)[O-])cc43)C(C#N)=C(N)NN2)cc1C` (stereo not shown) [Compound 5h, 3-amino-7-((3,4-dimethylphenyl)amino)-5',6-dinitro-2'-oxo-1,2-dihydrospiro[[1,2]diazepine-5,3'-indoline]-4-carbonitrile], the “BChE % inhibition at 50 µM” value in test [1] (setting [5]) was “Not active”. The inhibition at 50 µM in test [2] was 48.6 ± 2.7%.

For `COc1ccc(NC2=C([N+](=O)[O-])C3(C(=O)Nc4ccc([N+](=O)[O-])cc43)C(C#N)=C(N)NN2)cc1` (stereo not shown) [Compound 5i, 3-amino-7-((4-methoxyphenyl)amino)-5',6-dinitro-2'-oxo-1,2-dihydrospiro[[1,2]diazepine-5,3'-indoline]-4-carbonitrile], the results for the inhibition at 50 µM in test [1] and in test [2] were 31.2 ± 3.65% and 46.1 ± 3.38%, respectively.

Take `COc1ccc(OC)c(NC2=C([N+](=O)[O-])C3(C(=O)Nc4ccc([N+](=O)[O-])cc43)C(C#N)=C(N)NN2)c1` (stereo not shown) [Compound 5j, 3-amino-7-((2,5-dimethoxyphenyl)amino)-5',6-dinitro-2'-oxo-1,2-dihydrospiro[[1,2]diazepine-5,3'-indoline]-4-carbonitrile]: the IC50 in test [1] was determined as 17.4 ± 3.29 µM; in test [2], 20.9 ± 2.96 µM. Also, the inhibition at 50 µM in test [1] was determined as 58.4 ± 3.55%; in test [2], 61.7 ± 3.77%.

For the molecule `N#CC1=C(N)NNC(Nc2ccc(Cl)cc2)=C([N+](=O)[O-])C12C(=O)Nc1ccc([N+](=O)[O-])cc12` (stereo not shown) [Compound 5k, 3-amino-7-((4-chlorophenyl)amino)-5',6-dinitro-2'-oxo-1,2-dihydrospiro[[1,2]diazepine-5,3'-indoline]-4-carbonitrile], the inhibition at 50 µM in test [1] is 17.9 ± 1.81%; in test [2], 24.6 ± 1.7%.

Regarding `Cc1ccccc1NC1=C([N+](=O)[O-])C2(C(=O)Nc3c(Cl)cc(Cl)cc32)C(C#N)=C(N)NN1` (stereo not shown) [Compound 5m, 3-amino-5',7'-dichloro-6-nitro-2'-oxo-7-(o-tolylamino)-1,2-dihydrospiro[[1,2]diazepine-5,3'-indoline]-4-carbonitrile], the inhibition at 50 µM amounted to 41.9 ± 6.47% in test [1] (setting [5]) and 24.8 ± 5.48% in test [2] (setting [5]).

For the molecule `COc1ccc(NC2=C([N+](=O)[O-])C3(C(=O)Nc4c(Cl)cc(Cl)cc43)C(C#N)=C(N)NN2)cc1` (stereo not shown) [Compound 5n, 3-amino-5',7'-dichloro-7-((4-methoxyphenyl)amino)-6-nitro-2'-oxo-1,2-dihydrospiro[[1,2]diazepine-5,3'-indoline]-4-carbonitrile], the inhibition at 50 µM in test [1] (setting [5]) is 46.5 ± 4.77%; in test [2] (setting [5]) it was 35.4 ± 7.54%.

Regarding `Cc1ccc(NC2=C([N+](=O)[O-])C3(C(=O)Nc4c(Br)cc(Br)cc43)C(C#N)=C(N)NN2)cc1` (stereo not shown) [Compound 5o, 3-amino-5',7'-dibromo-6-nitro-2'-oxo-7-(p-tolylamino)-1,2-dihydrospiro[[1,2]diazepine-5,3'-indoline]-4-carbonitrile], the figures for the inhibition at 50 µM in test [1] (setting [5]) and in test [2] (setting [5]) were 14.1 ± 3.7% and 37.6 ± 4.74%, respectively.

As to `COc1ccc(OC)c(NC2=C([N+](=O)[O-])C3(C(=O)Nc4c(Br)cc(Br)cc43)C(C#N)=C(N)NN2)c1` (stereo not shown) [Compound 5p, 3-amino-5',7'-dibromo-7-((2,5-dimethoxyphenyl)amino)-6-nitro-2'-oxo-1,2-dihydrospiro[[1,2]diazepine-5,3'-indoline]-4-carbonitrile], the inhibition at 50 µM in test [1] (setting [5]) came to 59.3 ± 3.15%; in test [2] (setting [5]), 73.4 ± 4.21%. For the same molecule, the IC50 in test [1] (setting [6]) was found to be 37.9 ± 4.85 µM; in test [2] (setting [7]), 11.3 ± 1.65 µM.

As to `N#CC1=C(N)NNC(Nc2cccc(O)c2)=C([N+](=O)[O-])C12C(=O)Nc1c(Br)cc(Br)cc12` (stereo not shown) [Compound 5q, 3-amino-5',7'-dibromo-7-((3-hydroxyphenyl)amino)-6-nitro-2'-oxo-1,2-dihydrospiro[[1,2]diazepine-5,3'-indoline]-4-carbonitrile], the values for the inhibition at 50 µM in test [1] (setting [5]) and in test [2] (setting [5]) were 37.1 ± 0.84% and 63.1 ± 4.43%, respectively. For the same molecule, the IC50 in test [2] (setting [7]) was 12 ± 2.33 µM.

For `N#CC1=C(N)NNC(Nc2ccc(O)cc2)=C([N+](=O)[O-])C12C(=O)Nc1c(Br)cc(Br)cc12` (stereo not shown) [Compound 5r, 3-amino-5',7'-dibromo-7-((4-hydroxyphenyl)amino)-6-nitro-2'-oxo-1,2-dihydrospiro[[1,2]diazepine-5,3'-indoline]-4-carbonitrile], the inhibition at 50 µM in test [1] (setting [5]) is 51.7 ± 1.29%; in test [2] (setting [5]), 46.7 ± 1.92%. Besides, in test [1] (setting [6]), the IC50 came out at 45.7 ± 5.62 µM.

`COc1ccc(NC2=C([N+](=O)[O-])C3(C(=O)Nc4c(C(F)(F)F)cccc43)C(C#N)=C(N)NN2)cc1` (stereo not shown) [Compound 5s, 3-amino-7-((4-methoxyphenyl)amino)-6-nitro-2'-oxo-7'-(trifluoromethyl)-1,2-dihydrospiro[[1,2]diazepine-5,3'-indoline]-4-carbonitrile]: the values for the inhibition at 50 µM in test [1] (setting [5]) and in test [2] (setting [5]) were 13.4 ± 3.46% and 56 ± 4.39%, respectively. The IC50 in test [2] (setting [7]) came to 17.8 ± 2.79 µM.

For `Cc1ccccc1NC1=C([N+](=O)[O-])C2(C(=O)Nc3c(C(F)(F)F)cccc32)C(C#N)=C(N)NN1` (stereo not shown) [Compound 5t, 3-amino-6-nitro-2'-oxo-7-(o-tolylamino)-7'-(trifluoromethyl)-1,2-dihydrospiro[[1,2]diazepine-5,3'-indoline]-4-carbonitrile], the inhibition at 50 µM in test [1] (setting [5]) stood at 7.31 ± 5.07%; in test [2] (setting [5]), 24.7 ± 1.94%.

As to `N#CC1=C(N)NNC(Nc2cccc(O)c2)=C([N+](=O)[O-])C12C(=O)Nc1c(C(F)(F)F)cccc12` (stereo not shown) [Compound 5u, 3-amino-7-((3-hydroxyphenyl)amino)-6-nitro-2'-oxo-7'-(trifluoromethyl)-1,2-dihydrospiro[[1,2]diazepine-5,3'-indoline]-4-carbonitrile], the inhibition at 50 µM in test [1] (setting [5]) was found to be 10.4 ± 1.07%; in test [2] (setting [5]), 16.4 ± 0.53%.

For the molecule `N#CC1=C(N)NNC(Nc2ccc(O)cc2)=C([N+](=O)[O-])C12C(=O)Nc1c(C(F)(F)F)cccc12` (stereo not shown) [Compound 5v, 3-amino-7-((4-hydroxyphenyl)amino)-6-nitro-2'-oxo-7'-(trifluoromethyl)-1,2-dihydrospiro[[1,2]diazepine-5,3'-indoline]-4-carbonitrile], the results for the inhibition at 50 µM in test [1] (setting [5]) and in test [2] (setting [5]) were 13 ± 1.14% and 17.7 ± 1.82%, respectively.

As for `O=C1Nc2ccccc2/C1=C\c1cc[n+](Cc2ccccc2Cl)cc1` [compound B], the IC50 in test [3] was 0.00044 µM; in test [4], 1.37 µM. Also, in test [3] (versus donepezil as reference drug), the “fold more potent than donepezil (AChE)” value is 32 fold.

`O=C(CC1(O)C(=O)N(Cc2ccccc2)c2ccccc21)c1ccc(Br)cc1Br` (stereo not shown) [compound C]: the results for the concentration for half-maximal inhibition (IC50) in test [3] and in test [4] were 0.028 ± 0.003 µM and 0.065 ± 0.008 µM, respectively.

Consider `Cc1ccc(Cn2cc(COc3cccc(C4Nc5ccccc5NC5=C4C(=O)CC(C)(C)C5)c3)nn2)cc1` (stereo not shown) [compound E], for which the “AChE Inhibition % at 30 μM” value in test [3] (30 μM) is 12.9%. The IC50 in test [4] is 0.2 ± 0.002 µM.
